Experimental findings from US12502362B2, “Inhibitors of nucleotidyltransferase superfamily enzymes as antibiotics” (priority 2017, dated 2025) are described below.

Values after ≈ are worked out from the molar mass of the structure shown. Where two headings read alike, the source gives them in different places. Bounds are passed on as bounds.

Experiment [1] has as its system S. aureus ATCC strains and MRSA. Type of experiment: cell-based, Staphylococcus aureus.
The test system of experiment [2] is Staphylococcus hominis. Type of experiment: cell-based. On the procedure:
(§1) It was also tested whether compounds #63 and #285 can inhibit other coagulase-negative Staphylococcus (CNS) including S. epidermidis, S. hominis, etc. […].

Experiment [3] deals with Staphylococcus epidermidis. The format is cell-based. The method, then: as §1
Experiment [4] deals with Coagulase negative Staphylococcus. The experiment is described as follows: Antibiotic susceptibility of coagulase negative Staphylococcus strains. Type of experiment: cell-based.
Experiment [5] concerns S. aureus (ATCC 29213). Description: MIC80 on S. aureus. Type of experiment: cell-based, Staphylococcus aureus. The note with it: S. aureus ATCC 29213 (MSSA); ≥80% growth inhibition. The method, then:
(§2) To further characterize the compounds, the minimal inhibitory concentration (MIC80) were determined for selected compounds. MIC80 is defined as the compound concentration at which ≥80% bacterial growth is inhibited compare to untreated controls. Meanwhile, for the selected compounds, cytotoxicity assays (CC50) were performed on a HepG2-derived hepatoblastoma cell line (HEPDES19). […] For CC50 evaluation, soluble tetrazolium dye (MTS) was used to measure mitochondrial toxicity in a human hepatoblastoma cell line (18). The bacteria (E. coli, S. saprophyticus and A. baumannii) used in MIC80 measurements were the same as that in the primary screening, but for Staphylococcus, S. aureus is used primarily because it is a common pathogen in Staphylococcaeae family, while S. saprophyticus is part of the normal human flora.

Experiment [6] concerns E. coli (ATCC 35218). Description: microbe, parasite or virus in culture. The format is cell-based. The note with it: E. coli ATCC 35218. The method, then: as §2
The mark [7] stands for this setting: Se1 (Staphylococcus epidermidis).
The mark [8] stands for this setting: Se2 (Staphylococcus epidermidis).
[9] abbreviates: Se3 (Staphylococcus epidermidis).
[10] abbreviates: Se4 (Staphylococcus epidermidis).
Where [11] appears, read: Se5 (Staphylococcus epidermidis).
The mark [12] stands for this setting: CNS1 (Coagulase negative Staphylococcus).
[13] abbreviates: CNS2 (Coagulase negative Staphylococcus).

In the case of `CN[C@H](CC(C)C)C(=O)N[C@H]1C(=O)N[C@@H](CC(N)=O)C(=O)N[C@H]2C(=O)N[C@H]3C(=O)N[C@H](C(=O)N[C@H](C(=O)O)c4cc(O)cc(O)c4-c4cc3ccc4O)[C@H](O)c3ccc(c(Cl)c3)Oc3cc2cc(c3O[C@@H]2O[C@H](CO)[C@@H](O)[C@H](O)[C@H]2O[C@H]2C[C@](C)(N)[C@H](O)[C@H](C)O2)Oc2ccc(cc2Cl)[C@H]1O` [VAN, vancomycin], the Antibiotic susceptibility entry in experiment [1] (S. aureus ATCC 25923), in experiment [1] (S. aureus ATCC 29213), in experiment [1] (S. aureus ATCC BAA 976), in experiment [1] (S. aureus ATCC BAA 977), in experiment [1] (S. aureus ATCC BAA 1026) and in experiment [1] (Sa1 (MRSA)) was “S” each time. The Antibiotic susceptibility result in experiment [1] (Sa2 (MRSA)), in experiment [1] (Sa3 (MRSA)), in experiment [1] (Sa5 (MRSA)), in experiment [1] (Sa6 (MRSA)), in experiment [1] (Sa7 (MRSA)) and in experiment [1] (Sa8 (MRSA)) was “S” in each case. The Antibiotic susceptibility entry in experiment [1] (Sa9 (MRSA)), in experiment [1] (Sa10 (MRSA)), in experiment [1] (Sa11 (MRSA)), in experiment [1] (Sa12 (MRSA)), in experiment [1] (Sa14 (MRSA)) and in experiment [1] (Sa15 (MRSA)) was “S” each time. Also, the Antibiotic susceptibility entry in experiment [1] (Sa16 (MRSA)), in experiment [1] (Sa17 (MRSA)), in experiment [1] (Sa18 (MRSA)), in experiment [1] (Sa19 (MRSA)), in experiment [1] (Sa20 (MRSA)) and in experiment [1] (Sa21 (MRSA)) was “S” throughout. Also, the Antibiotic susceptibility entry in experiment [1] (Sa22 (MRSA)), in experiment [1] (Sa23 (MRSA)), in experiment [2] (Sh1 (Staphylococcus hominis)), in experiment [2] (Sh2 (Staphylococcus hominis)), in experiment [2] (Sh3 (Staphylococcus hominis)) and in experiment [3] (setting [7]) was “S” each time. The Antibiotic susceptibility entry in experiment [3] (setting [8]), in experiment [3] (setting [9]), in experiment [3] (setting [10]), in experiment [3] (setting [11]), in experiment [4] (setting [12]) and in experiment [4] (setting [13]) was “S” in each case.
In the case of `CCC[C@@H]1C[C@@H](C(=O)N[C@@H]([C@H]2O[C@H](SC)[C@H](O)[C@@H](O)[C@H]2O)[C@H](C)Cl)N(C)C1` [CLI, clindamycin], the Antibiotic susceptibility entry in experiment [1] (S. aureus ATCC 25923) was “S”; in experiment [1] (S. aureus ATCC 29213), “S”; in experiment [1] (S. aureus ATCC BAA 976), “S”; in experiment [1] (S. aureus ATCC BAA 977) it was “R”; in experiment [1] (S. aureus ATCC BAA 1026) it was “R”; in experiment [1] (Sa1 (MRSA)) it was “R”. Besides, the Antibiotic susceptibility result in experiment [1] (Sa2 (MRSA)) is on record as “S”; in experiment [1] (Sa3 (MRSA)), “R”; in experiment [1] (Sa5 (MRSA)) it was “R”; in experiment [1] (Sa6 (MRSA)) it was “R”; in experiment [1] (Sa7 (MRSA)), “S”; in experiment [1] (Sa8 (MRSA)), “S”. The Antibiotic susceptibility entry in experiment [1] (Sa9 (MRSA)), in experiment [1] (Sa10 (MRSA)), in experiment [1] (Sa11 (MRSA)), in experiment [1] (Sa12 (MRSA)), in experiment [1] (Sa14 (MRSA)) and in experiment [1] (Sa15 (MRSA)) was “R” throughout. Also, the Antibiotic susceptibility result in experiment [1] (Sa16 (MRSA)) was “R”; in experiment [1] (Sa17 (MRSA)) it was “S”; in experiment [1] (Sa18 (MRSA)), “S”; in experiment [1] (Sa19 (MRSA)), “R”; in experiment [1] (Sa20 (MRSA)), “S”; in experiment [1] (Sa21 (MRSA)) it was “S”. The Antibiotic susceptibility result in experiment [1] (Sa22 (MRSA)) is “S”; in experiment [1] (Sa23 (MRSA)) it was “S”; in experiment [2] (Sh1 (Staphylococcus hominis)), “S”; in experiment [2] (Sh2 (Staphylococcus hominis)), “S”; in experiment [2] (Sh3 (Staphylococcus hominis)), “R”; in experiment [3] (setting [7]), “R”. The Antibiotic susceptibility result in experiment [3] (setting [8]), in experiment [3] (setting [9]), in experiment [3] (setting [10]) and in experiment [3] (setting [11]) was “R” each time.
As for `Cc1onc(-c2ccccc2)c1C(=O)N[C@@H]1C(=O)N2[C@@H]1SC(C)(C)[C@@H]2C(=O)O` [OXA, Oxacillin], the Antibiotic susceptibility result in experiment [1] (S. aureus ATCC 25923) was “S”; in experiment [1] (S. aureus ATCC 29213) it was “S”; in experiment [1] (S. aureus ATCC BAA 976) it was “R”; in experiment [1] (S. aureus ATCC BAA 977) it was “S”; in experiment [1] (S. aureus ATCC BAA 1026) it was “R”; in experiment [1] (Sa1 (MRSA)), “R”. Also, the Antibiotic susceptibility entry in experiment [1] (Sa2 (MRSA)), in experiment [1] (Sa3 (MRSA)), in experiment [1] (Sa5 (MRSA)), in experiment [1] (Sa6 (MRSA)), in experiment [1] (Sa7 (MRSA)) and in experiment [1] (Sa8 (MRSA)) was “R” throughout. Also, the Antibiotic susceptibility result in experiment [1] (Sa9 (MRSA)), in experiment [1] (Sa10 (MRSA)), in experiment [1] (Sa11 (MRSA)), in experiment [1] (Sa12 (MRSA)), in experiment [1] (Sa14 (MRSA)) and in experiment [1] (Sa15 (MRSA)) was “R” in each case. Also, the Antibiotic susceptibility result in experiment [1] (Sa16 (MRSA)), in experiment [1] (Sa17 (MRSA)), in experiment [1] (Sa18 (MRSA)), in experiment [1] (Sa19 (MRSA)), in experiment [1] (Sa20 (MRSA)) and in experiment [1] (Sa21 (MRSA)) was “R” in each case. Further, the Antibiotic susceptibility entry in experiment [1] (Sa22 (MRSA)), in experiment [1] (Sa23 (MRSA)), in experiment [2] (Sh1 (Staphylococcus hominis)), in experiment [2] (Sh2 (Staphylococcus hominis)), in experiment [2] (Sh3 (Staphylococcus hominis)) and in experiment [3] (setting [7]) was “R” each time. The Antibiotic susceptibility result in experiment [3] (setting [8]), in experiment [3] (setting [9]), in experiment [3] (setting [10]), in experiment [3] (setting [11]), in experiment [4] (setting [12]) and in experiment [4] (setting [13]) was “R” each time.
In the case of `CN(C)[C@@H]1C(O)=C(C(N)=O)C(=O)[C@@]2(O)C(O)=C3C(=O)c4c(O)cccc4[C@@](C)(O)[C@H]3C[C@@H]12` [TET, Tetracycline], the Antibiotic susceptibility entry in experiment [1] (S. aureus ATCC 25923), in experiment [1] (S. aureus ATCC 29213), in experiment [1] (S. aureus ATCC BAA 976), in experiment [1] (S. aureus ATCC BAA 977), in experiment [1] (S. aureus ATCC BAA 1026) and in experiment [1] (Sa1 (MRSA)) was “S” in each case. Also, the Antibiotic susceptibility entry in experiment [1] (Sa2 (MRSA)), in experiment [1] (Sa3 (MRSA)), in experiment [1] (Sa5 (MRSA)), in experiment [1] (Sa6 (MRSA)), in experiment [1] (Sa7 (MRSA)) and in experiment [1] (Sa9 (MRSA)) was “S” in each case. Moreover, the Antibiotic susceptibility entry in experiment [1] (Sa11 (MRSA)), in experiment [1] (Sa12 (MRSA)), in experiment [1] (Sa14 (MRSA)), in experiment [1] (Sa15 (MRSA)), in experiment [1] (Sa16 (MRSA)) and in experiment [1] (Sa17 (MRSA)) was “S” in each case. Moreover, the Antibiotic susceptibility result in experiment [1] (Sa18 (MRSA)), in experiment [1] (Sa19 (MRSA)), in experiment [1] (Sa20 (MRSA)), in experiment [1] (Sa21 (MRSA)), in experiment [1] (Sa22 (MRSA)) and in experiment [1] (Sa23 (MRSA)) was “S” each time. The Antibiotic susceptibility entry in experiment [2] (Sh1 (Staphylococcus hominis)) is “R”; in experiment [2] (Sh2 (Staphylococcus hominis)), “R”; in experiment [2] (Sh3 (Staphylococcus hominis)) it was “S”; in experiment [3] (setting [7]), “S”; in experiment [3] (setting [8]) it was “S”; in experiment [3] (setting [9]), “S”. Moreover, the Antibiotic susceptibility entry in experiment [3] (setting [10]), in experiment [3] (setting [11]), in experiment [4] (setting [12]) and in experiment [4] (setting [13]) was “S” throughout.
For `O=c1cccccc1SSc1cccccc1=O` [Compound 685], in experiment [5], the “MIC80 S. aureus” value was >100 µM. Moreover, the “MIC80 E. coli” value in experiment [6] turned out to be 19.8 µM (≈ 5.43 µg/mL).
For the compound `Cc1cc(O)c(=O)c(O)cc1-c1cccc2ccccc12` [Compound 146], in experiment [5], the “MIC80 S. aureus” value came out at 19.8 µM (≈ 5.51 µg/mL).
Still for that read-out and setting: the figure for `O=C(O)c1ccccc(=O)c1O` [Compound 338] is 19.8 µM (≈ 3.29 µg/mL).
For the compound `COc1ccc(Cl)cc1C(=O)Sc1cccccc1=O` [Compound 681], the “MIC80 S. aureus” value in experiment [5] was determined as 19.8 µM (≈ 6.07 µg/mL). Moreover, in experiment [6], the “MIC80 E. coli” value was determined as 19.8 µM (≈ 6.07 µg/mL).
With `O=c1cccccc1Sc1cccccc1=O` [Compound 684], the “MIC80 S. aureus” value in experiment [5] came out at 44.4 µM (≈ 10.8 µg/mL).
